Experimental data published in patent publication US11384079B2, “6-5 fused rings as C5a inhibitors” (CHEMOCENTRYX, INC., priority 2017, dated 2022).

Biological target: T1, C5aR (Homo sapiens, UniProt P21730)
T1 construct: U937 cells are a monocytic cell line which express C5aR; host or cells: U937 cells (cAMP treated) or isolated neutrophils
T1 sequence (P21730 1-350): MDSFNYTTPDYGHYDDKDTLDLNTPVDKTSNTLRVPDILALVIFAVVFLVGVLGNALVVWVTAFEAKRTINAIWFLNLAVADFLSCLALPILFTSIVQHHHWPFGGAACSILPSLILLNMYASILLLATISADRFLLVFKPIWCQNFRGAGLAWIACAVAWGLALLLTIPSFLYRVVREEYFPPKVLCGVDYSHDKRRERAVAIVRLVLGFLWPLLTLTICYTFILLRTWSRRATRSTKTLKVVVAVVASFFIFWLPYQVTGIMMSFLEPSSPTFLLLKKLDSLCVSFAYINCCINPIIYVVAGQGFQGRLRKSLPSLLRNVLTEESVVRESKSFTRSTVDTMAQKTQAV
Experiment: chemotaxis assay (C5aR mediated migration)
Type: cell-based
Details: migration of U937 or neutrophil cells toward C5a (0.03 nM), 1.5 hours at 37° C., read-out: Mig IC50
Method in brief: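 Migration of cAMP-treated U937 cells (0.5 mM overnight), or of human or murine neutrophils, toward C5a was measured through 5 μm polycarbonate filters in HBSS with 1% FBS. SDF-1α served as a specificity control. After 1.5 h at 37 °C, lower-chamber cells were counted directly or by CyQuant.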

## CCc1cccc(CC)c1-n1nc2c(c1-c1ccc(Cl)c3[nH]ccc13)CN(c1ncc(F)cc1Cl)CC2 [Example 1.159]
  IC50: < 5 nM

## CCc1cccc(CC)c1-n1nc2c(c1-c1ccc(Cl)c3[nH]ccc13)CN(c1ncc(Cl)cn1)CC2 [Example 1.160]
  IC50: < 5 nM

## CCc1cccc(CC)c1-n1nc2c(c1-c1ccc(Cl)c3[nH]ccc13)CN(c1ncc(C(F)(F)F)cn1)CC2 [Example 1.161]
  IC50: < 5 nM

## CCc1cccc(CC)c1-n1nc2c(c1-c1ccc(F)c3[nH]cc(Cl)c13)CN(c1ncc(C(F)(F)F)cc1F)CC2 [Example 1.162]
  IC50: 5 to 50 nM

## CCc1cccc(CC)c1-n1nc2c(c1-c1ccc(Cl)c3[nH]ccc13)CN(c1ccc(C(F)(F)F)cn1)CC2 [Example 1.163]
  IC50: < 5 nM

## CCc1cccc(CC)c1-n1nc2c(c1-c1ccc(Cl)c3[nH]ccc13)CN(c1ncc(C(C)C)cn1)CC2 [Example 1.164]
  IC50: < 5 nM

## CCc1cccc(CC)c1-n1nc2c(c1-c1ccc(C(C)(C)O)c3[nH]ccc13)CN(c1ncc(C(F)(F)F)cc1F)CC2 [Example 1.165]
  IC50: 50 to 500 nM

## Cc1cccc(C)c1-n1nc2c(c1-c1ccc(F)c3[nH]cc(Cl)c13)CN(c1ncc(C(F)(F)F)cc1F)CC2 [Example 1.166]
  IC50: 50 to 500 nM

## CCc1cccc(CC)c1-n1nc2c(c1-c1ccc(Cl)c3[nH]ccc13)CN(c1ncc(C(C)C)cn1)CC2 [Example 1.167]
  IC50: < 5 nM

## CCc1cccc(CC)c1-n1nc2c(c1-c1ccc(C(N)=O)c3[nH]ccc13)CN(c1ncc(C(F)(F)F)cc1F)CC2 [Example 1.168]
  IC50: 50 to 500 nM

## Cc1cccc(C)c1-n1nc2c(c1-c1ccc(Cl)c3[nH]ccc13)CN(c1ncc(C(F)(F)F)cc1F)CC2 [Example 1.169]
  IC50: 5 to 50 nM

## CCc1cccc(CC)c1-n1nc2c(c1-c1ccc(C)c3[nH]cc(Cl)c13)CN(c1ncc(C(F)(F)F)cc1F)CC2 [Example 1.170]
  IC50: < 5 nM

## CCc1cccc(CC)c1-n1nc2c(c1-c1ccc(CO)c3[nH]ccc13)CN(c1ccc(C(F)(F)F)cn1)CC2 [Example 1.171]
  IC50: < 5 nM

## CCc1cccc(CC)c1-n1nc2c(c1-c1ccc(C(=O)OC)c3[nH]ccc13)CN(c1ncc(C(F)(F)F)cc1F)CC2 [Example 1.172]
  IC50: < 5 nM

## CCc1cccc(CC)c1-n1nc2c(c1-c1ccc(F)c3[nH]ccc13)CN(c1cnccn1)CC2 [Example 1.173]
  IC50: 5 to 50 nM

## CCc1cccc(CC)c1-n1nc2c(c1-c1ccc(CO)c3[nH]ccc13)CN(c1ncc(C(F)(F)F)cc1F)CC2 [Example 1.174]
  IC50: < 5 nM

## CCc1cccc(CC)c1-n1nc2c(c1-c1ccc(F)c3[nH]ccc13)CN(c1ncc(C3CC3)cc1F)CC2 [Example 1.175]
  IC50: < 5 nM

## CCc1cccc(CC)c1-n1nc2c(c1-c1ccc(F)c3[nH]ccc13)CN(c1ncc(C3CC3)cc1Cl)CC2 [Example 1.176]
  IC50: < 5 nM

## CCc1cccc(CC)c1-n1nc2c(c1-c1ccc(F)c3[nH]ccc13)CN(c1ncc(C)cn1)CC2 [Example 1.177]
  IC50: < 5 nM

## Cc1cccc(C)c1-n1nc2c(c1-c1ccc(F)c3[nH]ccc13)CN(c1ncc(C(F)(F)F)cc1F)CC2 [Example 1.178]
  IC50: 50 to 500 nM

## CCc1cccc(CC)c1-n1nc2c(c1-c1ccc(F)c3[nH]ccc13)CN(c1ncc(C(F)(F)F)cn1)CC2 [Example 1.179]
  IC50: < 5 nM

## CCc1cccc(CC)c1-n1nc2c(c1-c1ccc(F)c3[nH]ccc13)CN(c1ncc(C(C)C)cc1F)CC2 [Example 1.180]
  IC50: < 5 nM

## CCc1cccc(CC)c1-n1nc2c(c1-c1ccc(C)c3[nH]ccc13)CN(c1ncc(C(F)(F)F)cc1F)CC2 [Example 1.181]
  IC50: < 5 nM

## CCc1cccc(CC)c1-n1nc2c(c1-c1c(F)cc(F)c3[nH]ccc13)CN(c1ncc(C(F)(F)F)cc1F)CC2 [Example 1.182]
  IC50: 5 to 50 nM

## CCc1cccc(CC)c1-n1nc2c(c1-c1ccc(F)c3[nH]ccc13)CN(c1ncc(C(F)(F)F)cc1Cl)CC2 [Example 1.183]
  IC50: 5 to 50 nM

## CCc1cccc(CC)c1-n1nc2c(c1-c1ccc(F)c3[nH]ccc13)CN(c1ncc(Cl)cn1)CC2 [Example 1.184]
  IC50: < 5 nM
